Measurements from PMC4849550 (ACS chemical biology, 2016).

Target: Csd4 (Helicobacter pylori, UniProt B5ZAD9)
Experiment: crystal structure at […] Å
Assay type: biochemical

Work on CC(=O)N[C@H](CCP(=O)(O)CC(CCC[C@@H](N)C(=O)O)C(=O)O)C(=O)O (mixture of isomers) [compound 1, inhibitor 1] yielded a Ki of 1500 ± 300 nM.
